Values quoted from earlier work in patent US20090082349A1, “THIAZOLONES FOR USE AS PI3 KINASE INHIBITORS” (priority 2006, published 2009).
Like-named read-outs stand apart in the source and are kept apart here.

Key:
Class I PI3-kinases = conditions: each of the four Class I PI3-kinases
CK2 protein kinase = CK2 protein kinase (Homo sapiens, UniProt P68400)
CK2 protein kinase, sequence (P68400 whole entry): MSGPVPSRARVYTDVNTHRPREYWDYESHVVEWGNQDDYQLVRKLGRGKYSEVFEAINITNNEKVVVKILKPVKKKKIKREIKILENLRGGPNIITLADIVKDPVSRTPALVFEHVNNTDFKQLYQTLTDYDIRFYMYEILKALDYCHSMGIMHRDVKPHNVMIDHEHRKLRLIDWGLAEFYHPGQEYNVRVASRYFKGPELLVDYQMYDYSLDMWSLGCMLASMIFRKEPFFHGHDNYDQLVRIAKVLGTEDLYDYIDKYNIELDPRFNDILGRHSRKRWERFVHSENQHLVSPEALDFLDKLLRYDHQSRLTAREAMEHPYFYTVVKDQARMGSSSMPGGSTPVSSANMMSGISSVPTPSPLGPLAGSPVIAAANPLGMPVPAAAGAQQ

Row | SMILES | IC50 (Class I PI3-kinases; read-out: IC50 against each of the various Class I PI3-kinases) | IC50 (CK2 protein kinase) | IC50 (Class I PI3-kinases; Fruman et al. 1998, read-out: IC50 against each of these PI3-kinases)
1 | COC[C@H]1OC(=O)c2coc3c2[C@@]1(C)C1=C(C3=O)[C@@H]2CCC(=O)[C@@]2(C)C[C@H]1OC(C)=O [wortmannin] | 0.001 to 0.01 µM | – | –
2 | O=c1cc(N2CCOCC2)oc2c(-c3ccccc3)cccc12 [LY294002] | – | 5 to 10 µM | 15 to 20 µM
